Test results taken from patent US20220218667A1, “DUAL INHIBITORS OF SOLUBLE EPOXIDE HYDROLASE AND METHODS OF USE THEREOF” (OROX Biosciences, Inc., priority 2019, published 2022).
Entries after “also recorded” stand apart in the source; their conditions may differ.

Tests used:
human sEH = target: T1, human sEH (Homo sapiens, UniProt P34913); experiment: sEH inhibition IC50, fluorescent-based assay with purified recombinant sEH; assay type: biochemical; details: in vitro, relative to OX1
T1 sequence (P34913 1-555): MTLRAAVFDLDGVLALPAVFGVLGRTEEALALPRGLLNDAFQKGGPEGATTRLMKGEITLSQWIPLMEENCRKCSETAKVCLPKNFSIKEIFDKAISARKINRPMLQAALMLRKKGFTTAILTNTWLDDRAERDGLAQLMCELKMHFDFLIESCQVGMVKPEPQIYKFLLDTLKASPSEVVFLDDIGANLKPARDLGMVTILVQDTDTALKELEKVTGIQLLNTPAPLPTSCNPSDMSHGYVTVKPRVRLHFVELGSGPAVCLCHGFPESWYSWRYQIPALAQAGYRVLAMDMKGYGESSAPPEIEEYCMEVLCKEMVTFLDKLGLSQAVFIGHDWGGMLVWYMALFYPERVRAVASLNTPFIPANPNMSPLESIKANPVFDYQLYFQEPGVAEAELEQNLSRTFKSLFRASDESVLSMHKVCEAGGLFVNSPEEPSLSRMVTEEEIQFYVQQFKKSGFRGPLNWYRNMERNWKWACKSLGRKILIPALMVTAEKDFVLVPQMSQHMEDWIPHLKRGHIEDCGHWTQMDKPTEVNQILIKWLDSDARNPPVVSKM
Method: sEH inhibition IC50 values for the compounds presented herein can be assayed by a recombinant affinity assay using purified sEHs, from human, mouse or rat, in a fluorescent-based assay. In such an assay, enzymes, e.g., ˜1 nM human sEH, are incubated with a potential inhibitors for 5 min in 25 mM Bis-Tris/HCl buffer (200 μL; pH 7.0) at 30° C. before a substrate, e.g., cyano(2-methoxynaphthalen-6-yl)methyl trans-(3-phenyl-oxyran-2-yl)methyl carbonate, (CMNPC) is added ([S]final=5 μM).

[1] = test system: C57B/L6 mice exposed to bleomycin; experiment: Example 1: prophylactic treatment of mice exposed to bleomycin (IPF model); assay type: in vivo, mouse; details: OX1, OX3, Nintedanib 30 mg/kg QD, Pirfenidone 100 mg/kg BID
Description: 4-(5-phenyl-3-{3-[3-(4-trifluoromethyl-phenyl)-ureido]-propyl}-pyrazol-1-yl)-benzenesulfonamide (PTUPB) [termed OX1] was compared to Pirfenidone, Nintedanib, and GSK225629415 [termed OX3] for treatment of IPF using an established model for IPF treating, which is prophylactic treatment of mice exposed to the chemotherapeutic agent bleomycin. […] Pirfenidone and Nintedanib are standard of care for the treatment of idiopathic pulmonary fibrosis and served as reference compounds in the experiment.
C57B/L6 mice were used in the experiments. When used, Bleomycin was administered intra-oropharyngeally, 1.5 U/kg, QD per established protocol. The test articles were dosed via oral gavage in 200 μL/day vehicle. The doses and formulations of test articles were selected based on the literature describing the lowest doses capable of eliciting pharmacological action.
Animals were dosed with the test articles (or vehicle) starting at day −1 to day 20. On day 1, daily doses of Bleomycin commenced in all but group 1 (negative control) which received the vehicle. On day 21, all animals were weighed and sacrificed. After lungs and bronco-alveolar lavage fluid (BALF) were harvested, they were prepared according to standard procedures for further analysis and histology. All animals were assessed twice a week for body weight and overall appearance. Efficacy endpoints measured in this study included lung weight, total leukocytes, and histology as determined by Mason's Trichrome stain and scored using a modified Ashcroft score.
The following parameters were measured in bronchoalveolar fluid (BALF): 1) soluble collagen and 2) differential leukocyte counts for different leukocyte populations.
After weighing and removal of BALF from the lungs, they were inflated and fixed using 10% neutral buffered formalin for histopathology analysis. Fifty-four formalin-fixed lung samples from mice were submitted to HistoTox Labs and were processed routinely. Two slides from each block were sectioned and stained with hematoxylin and eosin (H&E) or Masson's trichrome. Glass slides were evaluated with light microscopy by a board-certified veterinary pathologist. Lung sections were scored according to the modified Ashcroft scale.

COX-2 = target: T2, COX-2 (Homo sapiens, UniProt P35354); experiment: COX-2 inhibition IC50, COX Fluorescent Inhibitor Screening Assay; assay type: biochemical
T2 construct: purchased Cayman Chemical 700100
T2 sequence (P35354 18-604): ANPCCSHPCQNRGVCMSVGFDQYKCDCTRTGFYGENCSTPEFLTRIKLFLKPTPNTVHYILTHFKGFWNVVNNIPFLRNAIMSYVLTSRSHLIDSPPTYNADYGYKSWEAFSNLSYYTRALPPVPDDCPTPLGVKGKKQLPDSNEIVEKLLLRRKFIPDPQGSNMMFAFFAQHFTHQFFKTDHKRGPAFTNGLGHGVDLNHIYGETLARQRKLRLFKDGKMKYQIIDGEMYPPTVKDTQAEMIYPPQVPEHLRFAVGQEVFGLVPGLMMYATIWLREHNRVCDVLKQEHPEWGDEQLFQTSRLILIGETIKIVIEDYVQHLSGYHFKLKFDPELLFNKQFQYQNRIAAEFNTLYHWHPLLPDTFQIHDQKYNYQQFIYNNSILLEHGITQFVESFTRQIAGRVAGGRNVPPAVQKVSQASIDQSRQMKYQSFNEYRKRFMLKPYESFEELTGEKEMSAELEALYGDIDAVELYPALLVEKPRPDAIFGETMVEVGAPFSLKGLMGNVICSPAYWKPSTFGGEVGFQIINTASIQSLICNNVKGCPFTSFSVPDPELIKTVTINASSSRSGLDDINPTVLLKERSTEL
Method: A COX Fluorescent Inhibitor Screening Assay Kit (catalog number 700100, Cayman Chemical, Ann Arbor, Mich.) is useful for assaying the ability of the compounds provided herein to inhibit ovine COX-1 and human recombinant COX-2 (% inhibition at 100 μM and IC50 values (M), respectively). Stock solutions of test compounds are dissolved in a minimum volume of DMSO. 10 μl of various concentrations of the test compound solutions, e.g., [I]final between 0.01 and 100 μM, are added to a series of supplied reaction buffer solutions (150 μl, 100 mM Tris-HCl, pH 8.0) with either COX-1 or COX-2 (10 μl) enzyme in the presence of Heme (10 μl) and a fluorometric substrate (10 μl). The reactions are initiated by quickly adding 10 μl of arachidonic acid solution and then incubating the system for two minutes at room temperature. Fluorescence of resorufin, which is produced by the reaction between PGG2 and fluorometric substrate, ADHP (10-acetyl-3,7-dihydroxyphenoxazine), is analyzed with an excitation wavelength of 535 nm and an emission wavelength of 590 nm. The intensity of this fluorescence is proportional to the amount of resorufin, which is proportional to the amount of PGG2 present in the well during the incubation. Percent inhibition is calculated by comparison from the 100% initial activity sample value (no inhibitor).

[2] = day 21, compared to vehicle (Group 2)

CNc1nc(C)nc(N[C@H]2CCC[C@@H](C(=O)NCc3ccc(C#N)cc3C(F)(F)F)C2)n1 [OX3]
fold more potent against sEH than OX1 (human sEH): roughly 75 fold | body weight course over 21 days ([1]; bleomycin mice, oral gavage day -1 to 20): lost the least weight; also recorded: sustained weight loss | neutrophil migration into BALF ([1]; day 21, oral): somewhat effective | number of lymphocytes in BALF ([1]; day 21, oral): trend increasingly lower | number of macrophages in BALF ([1]; day 21, oral): more macrophages | total cell (leukocyte) count in BALF ([1]; day 21, oral): did not demonstrate the same level of reduction | increased collagen (fibrosis) score, trichrome [1, 2]: slightly lower | mean Ashcroft score (lung histology) [1, 2]: slightly lower | mean score for mixed peribronchiolar/perivascular inflammation [1, 2]: lower | IC50 (COX-2): > 1 µM | times less potent on COX-2 than OX1 (COX-2; in vitro, relative to OX1): at least 10 times
